Source: PMC9841521, “Subnanomolar Affinity and Selective Antagonism at α7 Nicotinic Receptor by Combined Modifications of 2-Triethylammonium Ethyl Ether of 4-Stilbenol (MG624)” (Journal of Medicinal Chemistry, 2022)
“Also recorded” adds a separate entry of the source. Like-named read-outs stand apart in the source and are kept apart here.

Legend:
human α3β4-nAChR subtype = target: T1, human α3β4-nAChR subtype (Homo sapiens, UniProt P30926+P32297); experiment: Competition binding with [3H]epibatidine, membranes of SH-EP1 cells stably transfected with α3 and β4; conditions: for Ki: human α3β4 expressed in SH-EP1 cells, confidence interval in parentheses, read-out: α3β4-nAChR [3H]-Epi Ki
T1 construct: expressed in transfected cells

human α4β2-nAChR subtype = target: T2, human α4β2-nAChR subtype (Homo sapiens, UniProt P17787+P43681); experiment: Competition binding with [3H]epibatidine, membranes of HEK 293 cells stably transfected with α4 and β2; conditions: human α4β2 expressed in HEK 293 cells; confidence interval in parentheses; read-out: α4β2-nAChR [3H]-Epi Ki
T2 construct: expressed in transfected cells; gift of Dr. Jon Lindstrom

human α9α10-nAChR [1] = target: T3, human α9α10-nAChR (Homo sapiens, UniProt Q9GZZ6+Q9UGM1); experiment: Two-electrode voltage clamp, compound applied alone at 100 μM: intrinsic activity, rebound current, residual ACh response; assay type: cell-based; conditions: for partial agonism of α9α10-nAChRs, efficacy (AUC) / partial agonism of α9α10-nAChRs, efficacy (peak current): 100 μM pulse, alone, vs 1 mM ACh, range over the named compounds; for recovery of rebound current at α9α10-nAChR (in words): 1 min after test compound; for recovery of rebound current at α9α10-nAChR (in words) / residual ACh-induced current at α9α10-nAChR (in words): Figure 4; for residual ACh-induced current at α9α10-nAChR (in words): final ACh control 1 min after test compound
T3 construct: expressed in transfected cells; host or cells: Xenopus laevis oocytes (cRNA injection, α9:α10 9:1)

human α9α10-nAChR [2] = target: T3, human α9α10-nAChR; experiment: Two-electrode voltage clamp, antagonism of currents activated by 1 mM ACh, test compound coapplied, X. laevis oocytes (α9:α10 cRNA 9:1); assay type: cell-based; conditions: coapplied with 1 mM ACh; for inhibition of ACh-induced α9α10-nAChR function (in words) / IC50: up to 100 μM; for IC50: 95% confidence interval in parentheses; for inhibition of ACh-induced function at the α9α10-nAChR: maximal inhibition
human α7-nAChR [3] = target: T4, human α7-nAChR (Homo sapiens, UniProt P36544); experiment: Two-electrode voltage clamp, antagonism of currents activated by 1 mM ACh, test compound coapplied, X. laevis oocytes; assay type: cell-based; conditions: for inhibition of ACh-induced function at the α7-nAChR: maximal inhibition
human α7-nAChR [4] = target: T4, human α7-nAChR; experiment: Two-electrode voltage clamp, compound applied alone at 100 μM: intrinsic activity, rebound current, residual ACh response; assay type: cell-based; parameters: expressed in transfected cells; host or cells: SH-SY5Y neuroblastoma cells (transient); conditions: 100 μM pulse, vs 1 mM ACh, range over the named compounds
[5] = coapplied with 1 mM ACh, up to 100 μM
[6] = coapplied with 1 mM ACh, up to 100 μM, 95% confidence interval in parentheses, NA = not inhibited even at 100 μM, read-out: α7 IC50 (AUC)
[7] = coapplied with 1 mM ACh, up to 100 μM, 95% confidence interval in parentheses, NA = not inhibited even at 100 μM, read-out: α7 IC50 (peak current)

Compound | Ki (human α3β4-nAChR subtype) [nM] | Ki (human α4β2-nAChR subtype) [µM] | IC50 (human α9α10-nAChR [2]) [µM] | further results
CC[N+](CC)(CC)CCOc1ccc(OCc2ccccc2)cc1 [Compound 23, 2-(4-(Benzyloxy)phenoxy)-N,N,N-triethylethan-1-aminium Iodide] | 4700 |  |  | 
C[N+]1(C)CC[C@@H](Oc2ccc(-c3ccc4[nH]ccc4c3)cc2)C1.[I-] [Compound 33, (R)-3-(4-(1H-Indol-5-yl)phenoxy)-1,1-dimethylpyrrolidin-1-ium Iodide] | 365 | 5.1 | 15.9 | partial agonism of α9α10-nAChRs, efficacy (AUC) (human α9α10-nAChR [1]): 0.2–3 % of ACh control; partial agonism of α9α10-nAChRs, efficacy (peak current) (human α9α10-nAChR [1]): 5–55 % of ACh control; recovery of rebound current at α9α10-nAChR (in words) (human α9α10-nAChR [1]): almost complete recovery; residual ACh-induced current at α9α10-nAChR (in words) (human α9α10-nAChR [1]): highest residual ACh-induced currents; inhibition of ACh-induced α9α10-nAChR function (in words) (human α9α10-nAChR [2]): complete or nearly complete inhibition; inhibition of ACh-induced function at the α9α10-nAChR (human α9α10-nAChR [2]): 100%
CC[N+](CC)(CC)CCOc1ccc(-c2ccc3ccccc3c2)cc1 [Compound 8, N,N,N-Triethyl-2-(4-(naphthalen-2-yl)phenoxy)ethan-1-aminium Iodide] | 458 | 1.8 |  | 
CC[N+](CC)(CC)CCOc1ccc(/C=C/c2cc(O)cc(O)c2)cc1 [Compound 22, (E)-2-(4-(3,5-Dihydroxystyryl)phenoxy)-N,N,N-triethylethan-1-aminium Iodide] | 793 | 7.24 |  | 
CC[N+](CC)(CC)CCOc1ccc(CCc2ccccc2)cc1.[I-] [Compound 6, N,N,N-Triethyl-2-(4-phenethylphenoxy)ethan-1-aminium Iodide] | 1250 |  | 9.12 | partial agonism of α9α10-nAChRs, efficacy (AUC) (human α9α10-nAChR [1]): 0.2–3 % of ACh control; partial agonism of α9α10-nAChRs, efficacy (peak current) (human α9α10-nAChR [1]): 5–55 % of ACh control; block of subsequent ACh-induced function at α9α10-nAChRs (in words) (human α9α10-nAChR [1]; final 1 mM ACh 1 min after 100 μM compound, Figure 3B): significantly block; inhibition of ACh-induced α9α10-nAChR function (in words) (human α9α10-nAChR [2]): essentially full inhibition; inhibition of ACh-induced α7-nAChR function (in words) (human α7-nAChR [3]; [5]): no inhibition; also recorded: no effect; also recorded: devoid of α7-nAChR antagonism; alpha7 nAChR IC50 (AUC) (human α7-nAChR [3]; supplementary CSV): not active; alpha7 nAChR IC50 (peak current) (human α7-nAChR [3]; supplementary CSV): not active
CC[N+](CC)(CC)CCOc1ccc(-c2ccc3cc[nH]c3c2)cc1.[I-] [Compound 30, 2-(4-(1H-Indol-6-yl)phenoxy)-N,N,N-triethylethan-1-aminium Iodide] | 174 |  | 6.46 | inhibition of ACh-induced α9α10-nAChR function (in words) (human α9α10-nAChR [2]): complete or nearly complete inhibition; inhibition of ACh-induced function at the α9α10-nAChR (human α9α10-nAChR [2]): 100%; inhibition of ACh-induced α7-nAChR function (in words) (human α7-nAChR [3]; [5]): complete or nearly complete inhibition; IC50 (human α7-nAChR [3]; [6]): 1.95 µM; IC50 (human α7-nAChR [3]; [7]): 1.91 µM; inhibition of ACh-induced function at the α7-nAChR (human α7-nAChR [3]; coapplied with 1 mM ACh): 100%
CC[N+](CC)(CC)CCOc1ccc(C(=O)Nc2ccccc2)cc1 [Compound 26, N,N,N-Triethyl-2-(4-(phenylcarbamoyl)phenoxy)ethan-1-aminium Iodide] | 113 | 23 | 75.9 | IC50 (human α7-nAChR [3]; [6]): > 100 µM; IC50 (human α7-nAChR [3]; [7]): > 100 µM; IC50 (human α7-nAChR [3]; supplementary CSV, read-out: alpha7 nAChR IC50 (AUC)): > 100 µM; IC50 (human α7-nAChR [3]; supplementary CSV, read-out: alpha7 nAChR IC50 (peak current)): > 100 µM
CC[N+](CC)(CC)CCOc1ccc(/C=C/c2cc(OC)cc(OC)c2)cc1 [Compound 21] | 676 | 1.2 |  | 
CC[N+](CC)(CC)CCOc1ccc(NC(=O)c2ccccc2)cc1 [Compound 25, 2-(4-Benzamidophenoxy)-N,N,N-triethylethan-1-aminium Iodide] | 1070 | 4.5 | 115 | IC50 (human α7-nAChR [3]; [6]): 26.9 µM; IC50 (human α7-nAChR [3]; [7]): 25.7 µM
CC[N+](CC)(CC)CCOc1ccc(/N=N/c2ccccc2)cc1.[I-] [Compound 27, (E)-N,N,N-Triethyl-2-(4-(phenyldiazenyl)phenoxy)ethan-1-aminium Iodide] |  |  | 15.8 | inhibition of ACh-induced α9α10-nAChR function (in words) (human α9α10-nAChR [2]): complete or nearly complete inhibition; inhibition of ACh-induced α7-nAChR function (in words) (human α7-nAChR [3]; [5]): complete or nearly complete inhibition; IC50 (human α7-nAChR [3]; [6]): 5.54 µM; IC50 (human α7-nAChR [3]; [7]): 11.2 µM
CC[N+](CC)(CC)CCOc1ccc(-c2ccc3occc3c2)cc1 [Compound 32, 2-(4-(Benzofuran-5-yl)phenoxy)-N,N,N-triethylethan-1-aminium Iodide] | 343 |  |  | 
CC[N+](CC)(CC)CCOc1ccc(/C=C/c2ccc(C(F)(F)F)cc2)cc1 [Compound 16, (E)-N,N,N-Triethyl-2-(4-(4-(trifluoromethyl)styryl)phenoxy)ethan-1-aminium Iodide] | 874 | 10.4 |  | 
CC[N+](CC)(CC)CCOc1ccc(-c2cccc3ccccc23)cc1.[I-] [Compound 9, N,N,N-Triethyl-2-(4-(naphthalen-1-yl)phenoxy)ethan-1-aminium Iodide] |  |  |  | higher affinity for the α3β4- than for the α7-nAChR (human α3β4-nAChR subtype; binding affinities): ≈ 30 fold
CC[N+](CC)(CC)CCOc1ccc(C#Cc2ccccc2)cc1 [Compound 7, N,N,N-Triethyl-2-(4-(phenylethynyl)phenoxy)ethan-1-aminium Iodide] | 912 | 19.4 |  | 
C=Cc1ccc(OCC[N+](CC)(CC)CC)cc1 [Compound 4, N,N,N-Triethyl-2-(4-vinylphenoxy)ethan-1-aminium Iodide] | 1070 | 24 |  | 
CC[N+](CC)(CC)CCOc1ccc(/C=C/c2cccc3ccccc23)cc1 [Compound 10, (E)-N,N,N-Triethyl-2-(4-(2-(naphthalen-1-yl)vinyl)phenoxy)ethan-1-aminium Iodide] | 501 |  |  | 
CC[N+](CC)(CC)CCOc1ccc(/C=C/c2cccc(C(F)(F)F)c2)cc1 [Compound 15, (E)-N,N,N-Triethyl-2-(4-(3-(trifluoromethyl)styryl)phenoxy)ethan-1-aminium Iodide] | 1410 | 21.8 |  | 
CC[N+](CC)(CC)CCOc1ccc(-c2ccccc2)cc1 [Compound 5, 2-([1,1′-Biphenyl]-4-yloxy)-N,N,N-triethylethan-1-aminium Iodide] | 440 | 11.8 |  | 
CC[N+](CC)(CC)CCOc1ccc(/C=C/c2ccc(O)cc2)cc1 [Compound 20, (E)-N,N,N-Triethyl-2-(4-(4-hydroxystyryl)phenoxy)ethan-1-aminium Iodide] | 873 | 9.82 |  | 
CC[N+](CC)(CC)CCOc1ccc(/C=C/c2ccc3ccccc3c2)cc1 [Compound 11, (E)-N,N,N-Triethyl-2-(4-(2-(naphthalen-2-yl)vinyl)phenoxy)ethan-1-aminium Iodide] | 425 |  |  | 
CC[N+](CC)(CC)CCOc1ccc(/C=C/c2cccc(O)c2)cc1 [Compound 19, (E)-N,N,N-Triethyl-2-(4-(3-hydroxystyryl)phenoxy)ethan-1-aminium Iodide] | 998 | 10.1 |  | 
CC[N+](CC)(CC)CCOc1ccc(-c2ccc3[nH]ccc3c2)cc1.[I-] [Compound 31, 2-(4-(1H-Indol-5-yl)phenoxy)-N,N,N-triethylethan-1-aminium Iodide] | 177 |  | 8.13 | inhibition of ACh-induced α9α10-nAChR function (in words) (human α9α10-nAChR [2]): complete or nearly complete inhibition; inhibition of ACh-induced function at the α9α10-nAChR (human α9α10-nAChR [2]): 100%; inhibition of ACh-induced α7-nAChR function (in words) (human α7-nAChR [3]; [5]): complete or nearly complete inhibition; IC50 (human α7-nAChR [3]; [6]): 1.86 µM; IC50 (human α7-nAChR [3]; [7]): 2.01 µM; inhibition of ACh-induced function at the α7-nAChR (human α7-nAChR [3]; coapplied with 1 mM ACh): 100%
CC[N+](CC)(CC)CCOc1ccccc1 [Compound 3, N,N,N-Triethyl-2-phenoxyethan-1-aminium Iodide] | 10000 | 19 |  | 
CC[N+](CC)(CC)CCOc1ccc(-c2nc3ccccc3[nH]2)cc1 [Compound 29, 2-(4-(1H-Benzo[d]imidazol-2-yl)phenoxy)-N,N,N-triethylethan-1-aminium Iodide] | 345 |  | 202 | IC50 (human α7-nAChR [3]; [6]): 197 µM; IC50 (human α7-nAChR [3]; [7]): 182 µM
CC[N+](CC)(CC)CCOc1ccc(/C=C/c2ccc(OC)cc2)cc1 [Compound 18, (E)-N,N,N-Triethyl-2-(4-(4-methoxystyryl)phenoxy)ethan-1-aminium Iodide] | 187 |  |  | 
CC[N+](CC)(CC)CCOc1ccc(-c2nc3ccccc3o2)cc1.[I-] [Compound 28, 2-(4-(Benzo[d]oxazol-2-yl)phenoxy)-N,N,N-triethylethan-1-aminium Iodide] | 653 |  | 72.4 | partial agonism of α9α10-nAChRs, efficacy (AUC) (human α9α10-nAChR [1]): 0.2–3 % of ACh control; partial agonism of α9α10-nAChRs, efficacy (peak current) (human α9α10-nAChR [1]): 5–55 % of ACh control; recovery of rebound current at α9α10-nAChR (in words) (human α9α10-nAChR [1]): almost complete recovery; residual ACh-induced current at α9α10-nAChR (in words) (human α9α10-nAChR [1]): highest residual ACh-induced currents; IC50 (human α7-nAChR [3]; [6]): 2.25 µM; IC50 (human α7-nAChR [3]; [7]): 1.78 µM; partial agonism at α7-nAChR, efficacy compared to ACh control (peak current) (human α7-nAChR [4]): 15–50%
